PMC2723102, “The interactome of the amyloid β precursor protein family members is shaped by phosphorylation of their intracellular domains” (Molecular Neurodegeneration, 2009)

Tests used:
Type in all cases: binding
GST-X11β = biological target: T1, GST-X11β (Homo sapiens, UniProt Q99767); assay: BIAcore surface plasmon resonance, GST-X11β; settings: SPR, BIAcore 3000, strep-tag peptide amine coupled to CM-5 chip (4500–7500 RU), analyte GST-X11β
T1 construct: All these targets analyzed contain either an SH2 or a PTB domain fused to GST; made in house; host or cells: bacterial cultures
T1 sequence (Q99767 368-555 limits assumed): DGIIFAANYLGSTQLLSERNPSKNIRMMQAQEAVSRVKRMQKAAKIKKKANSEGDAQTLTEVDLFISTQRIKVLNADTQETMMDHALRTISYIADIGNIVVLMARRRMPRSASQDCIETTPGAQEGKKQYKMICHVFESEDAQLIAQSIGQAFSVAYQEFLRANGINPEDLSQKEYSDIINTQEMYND
From the text: (§1) Binding of GST and GST-Grb2, NUMB p71, and X11β domains to strep-tag AID peptide or different phosphorylation forms was monitored by surface plasmon resonance (SPR) on a BIAcore 3000 machine (BIAcore, Neuchâtel, Switzerland). The strep-tag peptide and different phosphorylation forms of AID peptides were covalently amine coupled to a CM-5 sensor chip by use of the amine covalent coupling. An immobilization level of 4500–7500 resonance units was obtained. A nonderivatized flowcell serves as a reference surface. Interactions between GST and GST-Grb2, NUMB p71, and X11β to strep-tag peptides were determined by the change in signal measured in RU.

GST-Grb2 = biological target: T2, GST-Grb2 (Homo sapiens, UniProt P62993); assay: BIAcore surface plasmon resonance, GST-Grb2; settings: SPR, BIAcore 3000, strep-tag peptide amine coupled to CM-5 chip (4500–7500 RU), analyte GST-Grb2
T2 construct: All these targets analyzed contain either an SH2 or a PTB domain fused to GST; made in house; host or cells: bacterial cultures
T2 sequence (P62993 60-152 limits assumed): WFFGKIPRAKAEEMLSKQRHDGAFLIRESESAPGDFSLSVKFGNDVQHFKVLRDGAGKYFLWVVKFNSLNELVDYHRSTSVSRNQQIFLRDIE
From the text: as §1

GST-NUMB-p71 = biological target: T3, GST-NUMB-p71 (Homo sapiens, UniProt P49757); assay: BIAcore surface plasmon resonance, GST-NUMB-p71; settings: SPR, BIAcore 3000, strep-tag peptide amine coupled to CM-5 chip (4500–7500 RU), analyte GST-NUMB-p71
T3 construct: All these targets analyzed contain either an SH2 or a PTB domain fused to GST; made in house; host or cells: bacterial cultures
T3 sequence (P49757 33-182 isoform P49757-3): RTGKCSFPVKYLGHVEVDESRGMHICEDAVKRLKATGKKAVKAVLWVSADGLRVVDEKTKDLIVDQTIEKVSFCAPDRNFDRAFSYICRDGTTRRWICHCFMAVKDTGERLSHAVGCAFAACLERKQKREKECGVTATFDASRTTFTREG
From the text: as §1

SMILES	Kd (GST-X11β) [nM]	Kd (GST-Grb2) [nM]	Kd (GST-NUMB-p71) [nM]
CC[C@H](C)[C@H](NC(=O)[C@H](CO)NC(=O)[C@@H](NC(=O)[C@H](Cc1ccc(O)cc1)NC(=O)[C@H](CCC(N)=O)NC(=O)[C@H](CCCCN)NC(=O)[C@H](CCCCN)NC(=O)[C@H](CCCCN)NC(=O)[C@H](CC(C)C)NC(=O)[C@H](CCSC)NC(=O)[C@@H](N)C(C)C)[C@@H](C)O)C(=O)N[C@@H](Cc1c[nH]cn1)C(=O)N[C@@H](Cc1c[nH]cn1)C(=O)NCC(=O)N[C@H](C(=O)N[C@H](C(=O)N[C@@H](CCC(=O)O)C(=O)N[C@H](C(=O)N[C@@H](CC(=O)O)C(=O)N[C@@H](C)C(=O)N[C@@H](C)C(=O)N[C@H](C(=O)N[C@H](C(=O)N1CCC[C@H]1C(=O)N[C@@H](CCC(=O)O)C(=O)N[C@@H](CCC(=O)O)C(=O)N[C@@H](CCCNC(=N)N)C(=O)N[C@@H](Cc1c[nH]cn1)C(=O)N[C@@H](CC(C)C)C(=O)N[C@@H](CO)C(=O)N[C@@H](CCCCN)C(=O)N[C@@H](CCSC)C(=O)N[C@@H](CCC(N)=O)C(=O)N[C@@H](CCC(N)=O)C(=O)N[C@@H](CC(N)=O)C(=O)NCC(=O)N[C@@H](Cc1ccc(OP(=O)(O)O)cc1)C(=O)N[C@@H](CCC(=O)O)C(=O)N[C@@H](CC(N)=O)C(=O)N1CCC[C@H]1C(=O)N[C@H](C(=O)N[C@@H](Cc1ccc(O)cc1)C(=O)N[C@@H](CCCCN)C(=O)N[C@@H](Cc1ccccc1)C(=O)N[C@@H](Cc1ccccc1)C(=O)N[C@@H](CCC(=O)O)C(=O)N[C@@H](CCC(N)=O)C(=O)N[C@@H](CCSC)C(=O)N[C@@H](CCC(N)=O)C(=O)N[C@@H](CC(N)=O)C(=O)O)[C@@H](C)O)[C@@H](C)OP(=O)(O)O)C(C)C)C(C)C)C(C)C)C(C)C [AIDpTpY]	13.1	0.413	–
CC[C@H](C)[C@H](NC(=O)[C@H](CO)NC(=O)[C@@H](NC(=O)[C@H](Cc1ccc(O)cc1)NC(=O)[C@H](CCC(N)=O)NC(=O)[C@H](CCCCN)NC(=O)[C@H](CCCCN)NC(=O)[C@H](CCCCN)NC(=O)[C@H](CC(C)C)NC(=O)[C@H](CCSC)NC(=O)[C@@H](N)C(C)C)[C@@H](C)O)C(=O)N[C@@H](Cc1c[nH]cn1)C(=O)N[C@@H](Cc1c[nH]cn1)C(=O)NCC(=O)N[C@H](C(=O)N[C@H](C(=O)N[C@@H](CCC(=O)O)C(=O)N[C@H](C(=O)N[C@@H](CC(=O)O)C(=O)N[C@@H](C)C(=O)N[C@@H](C)C(=O)N[C@H](C(=O)N[C@H](C(=O)N1CCC[C@H]1C(=O)N[C@@H](CCC(=O)O)C(=O)N[C@@H](CCC(=O)O)C(=O)N[C@@H](CCCNC(=N)N)C(=O)N[C@@H](Cc1c[nH]cn1)C(=O)N[C@@H](CC(C)C)C(=O)N[C@@H](CO)C(=O)N[C@@H](CCCCN)C(=O)N[C@@H](CCSC)C(=O)N[C@@H](CCC(N)=O)C(=O)N[C@@H](CCC(N)=O)C(=O)N[C@@H](CC(N)=O)C(=O)NCC(=O)N[C@@H](Cc1ccc(OP(=O)(O)O)cc1)C(=O)N[C@@H](CCC(=O)O)C(=O)N[C@@H](CC(N)=O)C(=O)N1CCC[C@H]1C(=O)N[C@H](C(=O)N[C@@H](Cc1ccc(O)cc1)C(=O)N[C@@H](CCCCN)C(=O)N[C@@H](Cc1ccccc1)C(=O)N[C@@H](Cc1ccccc1)C(=O)N[C@@H](CCC(=O)O)C(=O)N[C@@H](CCC(N)=O)C(=O)N[C@@H](CCSC)C(=O)N[C@@H](CCC(N)=O)C(=O)N[C@@H](CC(N)=O)C(=O)O)[C@@H](C)O)[C@@H](C)O)C(C)C)C(C)C)C(C)C)C(C)C [AIDpY]	–	2.57	997
